Reference: the supplement of paper PMC10307832

Columns and labels:
Experiment in all cases: relative viability (nuclei count vs DMSO), 5 days (fraction); higher = more cells survive
[1] = compound: NCC(=O)Nc1ccc(-n2nc(C(F)(F)F)cc2-c2ccc3c(ccc4ccccc43)c2)cc1 + CS(=O)(=O)CCNCc1ccc(-c2ccc3ncnc(Nc4ccc(OCc5cccc(F)c5)c(Cl)c4)c3c2)o1 [Lapatinib] (partner 2 µM)
In short: (§1)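 Medians of duplicate plates are given as relative viability. That measure is the nuclei count in treated wells divided by the count in vehicle wells. Counts were taken on 4× images of lung cancer cell lines in 1536-well plates, 5 days after pin-tool dosing the day after seeding with one drug alone or a fixed anchor-drug dose plus five library-drug doses (not always all listed) in √10 steps.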

[2] = compound: C1CSC2=C(C(=O)N1)SC3=C2C=C(C=C3)O [kb NB 142-70] + Cc1cc(Nc2cc(N3CCN(C)CC3)nc(Sc3ccc(NC(=O)C4CC4)cc3)n2)n[nH]1 [Tozasertib] (partner 0.1 µM)
In short: as §1

[3] = compound: NCC(=O)Nc1ccc(-n2nc(C(F)(F)F)cc2-c2ccc3c(ccc4ccccc43)c2)cc1 + CC(=O)c1c(C)c2cnc(Nc3ccc(N4CCNCC4)cn3)nc2n(C2CCCC2)c1=O [Palbociclib] (partner 0.5 µM)
In short: as §1

kb NB 142-70 + Olaparib = compound: C1CSC2=C(C(=O)N1)SC3=C2C=C(C=C3)O [kb NB 142-70] + O=C(c1cc(Cc2n[nH]c(=O)c3ccccc23)ccc1F)N1CCN(C(=O)C2CC2)CC1 [Olaparib] (partner 8 µM)
In short: as §1

## UMC-11
[1]; first compound 0.02 µM
  relative viability: 0.952
[1]; first compound 0.06325 µM
  relative viability: 1.09
[1]; first compound 0.2 µM
  relative viability: 0.985
[1]; first compound 0.6325 µM
  relative viability: 1.15
[1]; first compound 2 µM
  relative viability: 0.898
[2]; first compound 0.1 µM
  relative viability: 0.217
[2]; first compound 1 µM
  relative viability: 0.179
[2]; first compound 3.162 µM
  relative viability: 0.18
[3]; first compound 0.02 µM
  relative viability: 0.301
[3]; first compound 0.06325 µM
  relative viability: 0.305
[3]; first compound 0.2 µM
  relative viability: 0.297
[3]; first compound 0.6325 µM
  relative viability: 0.325
[3]; first compound 2 µM
  relative viability: 0.344
Kb NB 142-70 + Olaparib; first compound 0.1 µM
  relative viability: 0.309
Kb NB 142-70 + Olaparib; first compound 1 µM
  relative viability: 0.315
Kb NB 142-70 + Olaparib; first compound 3.162 µM
  relative viability: 0.199
